The melting point is the temperature, or range, at which the solid turns liquid.

Counter-ions that a name gives are not always drawn.

These results are taken from patent US20200281944A1, “Combinations Of Lanosterol Or 25-Hydroxycholesterol Including Derivatives Thereof Useful In The Treatment Of Lens Disorders” (priority 2017, published 2020).

One data set relates to presbyopia. The note with it: cited from earlier work.
The subject of the next data set is lens opacification. To be noted: cell cultures, in the presence of guanidine; cited from earlier work.

As to `C[N+](C)(C)CCOC(=O)CCCC[C@@H]1CCSS1` [EV06, Lipoic acid choline ester], the binocular near acuity entry in the data set with presbyopia (Lipoic acid choline ester 1.5%) was “improved”. Further, the “distance corrected near vision acuity (DCNVA) efficacy measures” value with presbyopia (in vivo) was “improvement in all”.
`CC(C)=CCC[C@@H](C)[C@H]1CC[C@@]2(C)C3=C(CC[C@]12C)[C@@]1(C)CC[C@H](OP(=O)(O)O)C(C)(C)[C@@H]1CC3` (as salt: phosphate): the melting point lay in the range of 204 to 205 °C.
For the compound `NCCC(=O)N[C@@H](Cc1c[nH]cn1)C(=O)O` [L-carnosine, β-alanyl-L-histidine], in the data set on lens opacification, the “prevention of lens opacification” value is 50 to 60%.
